Reference: ChEMBL document CHEMBL1136858, “Synthesis of hydroxycoumarins and hydroxybenzo[f]- or [h]coumarins as lipid peroxidation inhibitors” (Bioorg Med Chem Lett, 2009)
Calls of active or inactive are those of the source. The rule behind the calls is not given here.

What was measured:
[1] = test system: Rattus norvegicus; test: Antiinflammatory activity in rat assessed as inhibition of carrageenan-induced paw edema at 0.01 mmol/kg, ip after 3.5 hrs; format: functional
[2] = test system: Glycine max; test: Inhibition of soybean lipoxygenase at 100 uM by UV absorbance based assay
[3] = Antioxidant activity assessed as inhibition of AAPH-induced lipid peroxidation at 100 uM; format: functional
[4] = test system: Radical scavenging activity; test: Antioxidant activity assessed as DPPH radical scavenging activity at 0.05 mM after 60 mins; format: functional
[5] = test system: Radical scavenging activity; test: Antioxidant activity assessed as DPPH radical scavenging activity at 0.05 mM after 20 mins; format: functional
[6] = test system: Radical scavenging activity; test: Antioxidant activity assessed as DPPH radical scavenging activity at 0.01 mM after 60 mins; format: functional
[7] = test system: Radical scavenging activity; test: Antioxidant activity assessed as DPPH radical scavenging activity at 0.01 mM after 20 mins; format: functional
[8] = Antioxidant activity assessed as superoxide radical scavenging activity at 100 uM by nitroblue tetrazolium method; format: functional
[9] = Inhibition of soybean lipoxygenase by UV absorbance based assay; design: species or system Glycine max

Compound	inhibition [2]	IC50 [9] [µM]	inhibition in vivo at 10 µmol/kg [1] [%]	inhibition [3]	Activity [4]	Activity [5]	Activity [6] [%]	Activity [7] [%]	inhibition [8]	Activity [1]
COc1ccc2c(c1)c(CC(=O)O)c(C)n2C(=O)c1ccc(Cl)cc1 [INDOMETHACIN]	–	–	47	–	–	–	–	–	–	–
O=c1ccc2cc(O)c3c(c2o1)CCCC3	12%	–	–	42%	38%	35%	40	44	68%	–
Cc1ccc2ccc(=O)oc2c1	89%	–	55	–	inactive	inactive	2	2	–	–
O=C(O)/C=C/c1ccc(O)c(O)c1 [CAFFEIC ACID]	–	600	–	–	–	–	–	–	71%	–
Cc1cc2oc(=O)ccc2cc1O	3%	–	–	24%	20%	22%	51	51	54%	–
Cc1c(C)c2c(c(C)c1O)CCC(C)(C(=O)O)O2 (stereo not drawn)	–	–	–	73%	–	–	–	–	–	–
CC(Cc1ccc(O)c(O)c1)C(C)Cc1ccc(O)c(O)c1 (stereo not drawn)	–	–	–	–	72%	68%	83	81	–	–
O=c1ccc2ccc(O)cc2o1 [UMBELLIFERONE]	–	43	–	83%	inactive	inactive	2	2	65%	inactive
Cc1cc(O)cc2oc(=O)ccc12	27%	–	–	30%	43%	43%	54	31	61%	–

Continued, in another order:

inhibition [2]	IC50 [9] [µM]	Compound	inhibition in vivo at 10 µmol/kg [1] [%]	inhibition [3]	Activity [4]	Activity [5]	Activity [6] [%]	Activity [7] [%]	inhibition [8]	Activity [1]
25%	–	Cc1c(O)ccc2ccc(=O)oc12	–	inactive	15%	14%	27	26	60%	–
37%	–	O=c1ccc2cccc(O)c2o1 [8-Hydroxycoumarin]	18	28%	30%	31%	32	33	56%	–
38%	–	O=c1ccc2c(cc(O)c3ccccc32)o1	15	57%	31%	28%	51	55	inactive	–
inactive	–	O=c1ccc2c(o1)c(O)cc1ccccc12	18	100%	20%	22%	54	46	79%	–
15%	–	O=c1ccc2ccccc2o1 [COUMARIN]	30	–	inactive	inactive	21	5	–	–
–	100	O=c1ccc2cc(O)c3ccccc3c2o1	39	100%	72%	65%	89	77	61%	–
